Where two headings read alike, the source gives them in different places. Square brackets hold non-standard residues; d marks the D form. Peptide text beside a SMILES is read from it. Nspe = C[C@H](NCC(=O)O)c1ccccc1; NhArg = N=C(N)NCCCCNCC(=O)O; NPentylGly = CCCCCNCC(=O)O
Columns and labels:
Assay type in all cases: cell-based
[1] = test system: Escherichia coli K-12 wild-type strain (W3110/ATCC27325); settings: for MIC E. coli: lowest concentration completely inhibiting growth, 37 °C, 16 h, range 2–100 μM
How it was run: (§1)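 Peptoids (DMSO stock, diluted in Iso-sensitest broth) are serially halved to give 2–100 µM final in wells with equal volume of bacterial inoculum, standardised to 0.5 McFarland then diluted 10×. After 16 h at 37 °C with shaking, absorbance gives growth; triplicates.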

[2] = test system: Pseudomonas aeruginosa PA01 (ATCC 15692)
How it was run: as §1

[3] = test system: Staphylococcus aureus (3R7089 strain Oxford/ATCC9144); settings: lowest concentration completely inhibiting growth, 37 °C, 16 h; range 2–100 μM
How it was run: as §1

[4] = test system: Staphylococcus epidermidis (laboratory strain from clinical isolate); settings: 16 h
How it was run: as §1

[5] = lowest concentration completely inhibiting growth, 37 °C, 16 h, range 2–100 μM
[6] = lowest concentration completely inhibiting growth, 37 °C, range 2–100 μM

Row | Compound | MIC E. coli [1] [µM] | MIC P. aeruginosa [2, 5] [µM] | MIC S. aureus [3] [µM] | MIC S. epidermidis [4, 6] [µM] | MIC S. epidermidis ([4]; laboratory strain from clinical isolate) [µM] | MIC P. aeruginosa ([2]; ATCC 15692, 16 h) [µM] | activity against E. coli (in words) [1] | activity against P. aeruginosa (in words) [2]
1 | C[C@@H](c1ccccc1)N(CC(N)=O)C(=O)CN(Cc1ccc(F)cc1)C(=O)CN(CCCCN)C(=O)CN(C(=O)CN(Cc1ccc(F)cc1)C(=O)CN(CCCCN)C(=O)CN(C(=O)CN(Cc1ccc(F)cc1)C(=O)CNCCCCN)[C@@H](C)c1ccccc1)[C@@H](C)c1ccccc1 [Peptoid 27, (NLysNpfbNspe)3] | 25 | 25 | 3 | 2 |  |  |  | 
2 | C[C@@H](c1ccccc1)N(CC(N)=O)C(=O)CN(C(=O)CN(CCCCN)C(=O)CN(Cc1ccc(F)cc1)C(=O)CN(Cc1ccc(F)cc1)C(=O)CN(CCCCN)C(=O)CN(C(=O)CN(C(=O)CN(CCCCN)C(=O)CN(Cc1ccc(F)cc1)C(=O)CN(Cc1ccc(F)cc1)C(=O)CNCCCCN)[C@@H](C)c1ccccc1)[C@@H](C)c1ccccc1)[C@@H](C)c1ccccc1 [Peptoid 28, [(NLysNpfbNpfb)(NLysNspeNspe)]2] | 6 | 50 | 2 | 1 | < 1 |  |  | 
3 | C[C@@H](c1ccccc1)N(CC(N)=O)C(=O)CN(C(=O)CN(CCCCN)C(=O)CN(Cc1ccc(F)cc1)C(=O)CN(Cc1ccc(F)cc1)C(=O)CN(CCCCN)C(=O)CN(C(=O)CN(C(=O)CNCCCCN)[C@@H](C)c1ccccc1)[C@@H](C)c1ccccc1)[C@@H](C)c1ccccc1 [Peptoid 29, (NLysNspeNspe)(NLysNpfbNpfb)(NLysNspeNspe)] | 13 | 25 | 3 | 2 |  |  |  | 
4 | CCCCCNCC(=O)N(CC(=O)N(CC(=O)N(CCCCN)CC(=O)N(CC(=O)N(CC(=O)N(CCCCN)CC(=O)N(CC(=O)N(CC(=O)N(CCCCN)CC(=O)N(CC(=O)N(CC(N)=O)[C@@H](C)c1ccccc1)[C@@H](C)c1ccccc1)[C@@H](C)c1ccccc1)[C@@H](C)c1ccccc1)[C@@H](C)c1ccccc1)[C@@H](C)c1ccccc1)[C@@H](C)c1ccccc1)[C@@H](C)c1ccccc1 [Peptoid 30, (NamyNspeNspe)[(NLysNspeNspe)]3] | 50 | 50 | 2 | 2 |  |  |  | 
5 | CCCCCNCC(=O)N(CC(=O)N(CC(=O)N(CCCCC)CC(=O)N(CC(=O)N(CC(=O)N(CCCCN)CC(=O)N(CC(=O)N(CC(=O)N(CCCCN)CC(=O)N(CC(=O)N(CC(N)=O)[C@@H](C)c1ccccc1)[C@@H](C)c1ccccc1)[C@@H](C)c1ccccc1)[C@@H](C)c1ccccc1)[C@@H](C)c1ccccc1)[C@@H](C)c1ccccc1)[C@@H](C)c1ccccc1)[C@@H](C)c1ccccc1 [Peptoid 31, (NamyNspeNspe)2(NLysNspeNspe)2] | >100 | 100 | 2 | 1 |  | >100 |  | 
6 | CCCCCN(CC(=O)N(CC(=O)N(CC(=O)N(CCCCN)CC(=O)N(CC(=O)N(CC(N)=O)[C@@H](C)c1ccccc1)[C@@H](C)c1ccccc1)[C@@H](C)c1ccccc1)[C@@H](C)c1ccccc1)C(=O)CN(C(=O)CN(C(=O)CN(CCCCN)C(=O)CN(C(=O)CN(C(=O)CNCCCCN)[C@@H](C)c1ccccc1)[C@@H](C)c1ccccc1)[C@@H](C)c1ccccc1)[C@@H](C)c1ccccc1 [Peptoid 32, (NLysNspeNspe)2(NamyNspeNspe)(NLysNspeNspe)] | >100 | 100 | 6 | 2 |  | >100 |  | 
7 | C[C@@H](c1ccccc1)N(CC(N)=O)C(=O)CN(C(=O)CN(CCCCNC(=N)N)C(=O)CN(C(=O)CN(C(=O)CN(CCCCNC(=N)N)C(=O)CN(C(=O)CN(C(=O)CN(CCCCNC(=N)N)C(=O)CN(C(=O)CN(C(=O)CNCCCCNC(=N)N)[C@@H](C)c1ccccc1)[C@@H](C)c1ccccc1)[C@@H](C)c1ccccc1)[C@@H](C)c1ccccc1)[C@@H](C)c1ccccc1)[C@@H](C)c1ccccc1)[C@@H](C)c1ccccc1 [Peptoid 34, (NhArgNspeNspe)4] (H-[NhArg][Nspe][Nspe][NhArg][Nspe][Nspe][NhArg][Nspe][Nspe][NhArg][Nspe][Nspe]-NH2) | 6 | 13 | 1 | 1 |  |  |  | 
8 | CCCCCNCC(=O)N(CC(=O)N(CC(=O)N(CCCCNC(=N)N)CC(=O)N(CC(=O)N(CC(=O)N(CCCCC)CC(=O)N(CC(=O)N(CC(=O)N(CCCCNC(=N)N)CC(=O)N(CC(=O)N(CC(N)=O)[C@@H](C)c1ccccc1)[C@@H](C)c1ccccc1)[C@@H](C)c1ccccc1)[C@@H](C)c1ccccc1)[C@@H](C)c1ccccc1)[C@@H](C)c1ccccc1)[C@@H](C)c1ccccc1)[C@@H](C)c1ccccc1 [Peptoid 40, [(NamyNspeNspe)(NhArgNspeNspe)]2] (H-[NPentylGly][Nspe][Nspe][NhArg][Nspe][Nspe][NPentylGly][Nspe][Nspe][NhArg][Nspe][Nspe]-NH2) | >100 | 100 | 3 | 6 |  | >100 | not active | not active
9 | (NhArgNmfbNmfb)4 [Peptoid 36] | 13 | 13 | 2 | 2 |  |  |  | 
